The record followed here is ChEMBL document CHEMBL2401644, “Synthesis and biological evaluation of new chlorin derivatives as potential photosensitizers for photodynamic therapy” (Bioorg Med Chem, 2013).

Series [1] is described as follows: Solubility of the compound in water. It is filed as physicochemical.
A short description of series [2]: Biodistribution in serum of BALB/c mouse allografted with mouse C26 cells at 10 mg/kg, iv after 3 hrs. It is filed as ADME, organism-based. Also on record: dose 10 mg/kg, route intravenous. The conditions noted are these: read-out: Drug uptake.
Series [3] in a line: Biodistribution in serum of BALB/c mouse allografted with mouse C26 cells at 10 mg/kg, iv after 1 hr. Also on record: dose 10 mg/kg, route intravenous. Type of series: ADME, organism-based. The settings on record: read-out: Drug uptake.
In series [4] the test system is Serum. In words: Biodistribution in serum of BALB/c mouse allografted with mouse C26 cells at 10 mg/kg, iv after 1 to 24 hrs. Type of series: ADME, organism-based. Also on record: dose 10 mg/kg, route intravenous. The settings on record: in vivo.
Series [5] deals with Liver. In words: Biodistribution in liver of BALB/c mouse allografted with mouse C26 cells at 10 mg/kg, iv after 1 to 24 hrs. Type of series: ADME, organism-based. Further details: dose 10 mg/kg, route intravenous. The conditions noted are these: in vivo.
Series [6] has as its system Mus musculus. The series is described as follows: Biodistribution in tumor of BALB/c mouse allografted with mouse C26 cells at 10 mg/kg, iv after 1 to 24 hrs. It is filed as ADME, organism-based, Neoplasm. Further details: dose 10 mg/kg, route intravenous. The settings on record: in vivo.
Series [7] has as its system Serum. The series is described as follows: Biodistribution in serum of BALB/c mouse allografted with mouse C26 cells at 10 mg/kg, iv after 24 hrs. Further details: dose 10 mg/kg, route intravenous. Type of series: ADME, organism-based. The conditions noted are these: in vivo.
Series [8] concerns Zone of skin. The series is described as follows: Biodistribution in skin of BALB/c mouse allografted with mouse C26 cells at 10 mg/kg, iv after 24 hrs. The conditions noted are these: in vivo. It is filed as ADME, organism-based. Further details: dose 10 mg/kg, route intravenous.
Series [9] concerns Brain. In words: Biodistribution in brain of BALB/c mouse allografted with mouse C26 cells at 10 mg/kg, iv after 24 hrs. Type of series: ADME, organism-based. Further details: dose 10 mg/kg, route intravenous. The conditions noted are these: in vivo.
The subject of series [10] is Muscle tissue. The series is described as follows: Biodistribution in muscle of BALB/c mouse allografted with mouse C26 cells at 10 mg/kg, iv after 24 hrs. Type of series: ADME, organism-based. Further details: dose 10 mg/kg, route intravenous. The conditions noted are these: in vivo.
The subject of series [11] is Spleen. The series is described as follows: Biodistribution in spleen of BALB/c mouse allografted with mouse C26 cells at 10 mg/kg, iv after 24 hrs. It is filed as ADME, organism-based. Further details: dose 10 mg/kg, route intravenous. The conditions noted are these: in vivo.
Series [12] relates to Lung. The series is described as follows: Biodistribution in lung of BALB/c mouse allografted with mouse C26 cells at 10 mg/kg, iv after 24 hrs. It is filed as ADME, organism-based. Further details: dose 10 mg/kg, route intravenous. The settings on record: in vivo.
The test system of series [13] is Kidney. The series is described as follows: Biodistribution in kidney of BALB/c mouse allografted with mouse C26 cells at 10 mg/kg, iv after 24 hrs. Type of series: ADME, organism-based. Also on record: dose 10 mg/kg, route intravenous. The conditions noted are these: in vivo.
Series [14] deals with Liver. In words: Biodistribution in liver of BALB/c mouse allografted with mouse C26 cells at 10 mg/kg, iv after 24 hrs. Type of series: ADME, organism-based. The settings on record: in vivo. Further details: dose 10 mg/kg, route intravenous.
Series [15] has as its system Zone of skin. The series is described as follows: Biodistribution in skin of BALB/c mouse allografted with mouse C26 cells at 10 mg/kg, iv after 3 hrs. It is filed as ADME, organism-based. Also on record: dose 10 mg/kg, route intravenous. The settings on record: in vivo.
Series [16] has as its system Muscle tissue. In words: Biodistribution in muscle of BALB/c mouse allografted with mouse C26 cells at 10 mg/kg, iv after 3 hrs. It is filed as ADME, organism-based. Also on record: dose 10 mg/kg, route intravenous. The settings on record: in vivo.
Series [17] concerns Brain. In words: Biodistribution in brain of BALB/c mouse allografted with mouse C26 cells at 10 mg/kg, iv after 3 hrs. It is filed as ADME, organism-based. Further details: dose 10 mg/kg, route intravenous. The conditions noted are these: in vivo.
The test system of series [18] is Lung. In words: Biodistribution in lung of BALB/c mouse allografted with mouse C26 cells at 10 mg/kg, iv after 3 hrs. It is filed as ADME, organism-based. Further details: dose 10 mg/kg, route intravenous. The conditions noted are these: in vivo.
Series [19] concerns Spleen. The series is described as follows: Biodistribution in spleen of BALB/c mouse allografted with mouse C26 cells at 10 mg/kg, iv after 3 hrs. Type of series: ADME, organism-based. Also on record: dose 10 mg/kg, route intravenous. The conditions noted are these: in vivo.
The subject of series [20] is Kidney. The series is described as follows: Biodistribution in kidney of BALB/c mouse allografted with mouse C26 cells at 10 mg/kg, iv after 3 hrs. Type of series: ADME, organism-based. Also on record: dose 10 mg/kg, route intravenous. The settings on record: in vivo.
Series [21] concerns Mus musculus. The series is described as follows: Toxicity against BALB/c mouse allografted with mouse C26 cells assessed as cellular damage in kidney at 10 mg/kg, iv administered for 3 hrs followed by irradiation measured after 3 days by hematoxylin and eosin staining. It is filed as organism-based. Further details: dose 10 mg/kg, route intravenous. The conditions noted are these: in vivo, 72 h.

Series [22] has as its system Mus musculus. In words: Toxicity against BALB/c mouse allografted with mouse C26 cells assessed as cellular damage in liver at 10 mg/kg, iv administered for 3 hrs followed by irradiation measured after 3 days by hematoxylin and eosin staining. Type of series: organism-based. Further details: dose 10 mg/kg, route intravenous. The conditions noted are these: in vivo, 72 h.

Series [23] concerns C26. In words: Antitumor activity against mouse C26 cells allografted in BALB/c mouse assessed as sparsely distributed cell nuclei of tumor cells at 10 mg/kg, iv administered for 3 hrs followed by light irradiation measured after 3 days by hematoxylin and eosin staining relative to control. Type of series: functional, organism-based. Also on record: dose 10 mg/kg.
For series [24], the system named is C26. The series is described as follows: Antitumor activity against mouse C26 cells allografted in BALB/c mouse assessed as poor nuclei staining of tumor cells at 10 mg/kg, iv administered for 3 hrs followed by light irradiation measured after 3 days by hematoxylin and eosin staining relative to control. Further details: dose 10 mg/kg. Type of series: functional, organism-based.

In series [25] the test system is C26. The series is described as follows: Antitumor activity against mouse C26 cells allografted in BALB/c mouse assessed as reduction in nuclei number of tumor cells at 10 mg/kg, iv administered for 3 hrs followed by light irradiation measured after 3 days by hematoxylin and eosin staining relative to control. It is filed as functional, organism-based. Also on record: dose 10 mg/kg.

The subject of series [26] is C26. In words: Antitumor activity against mouse C26 cells allografted in BALB/c mouse assessed as reduction in nuclei size of tumor cells at 10 mg/kg, iv administered for 3 hrs followed by light irradiation measured after 3 days by hematoxylin and eosin staining relative to control. It is filed as functional, organism-based. Also on record: dose 10 mg/kg.
In series [27] the test system is C26. The series is described as follows: Antitumor activity against mouse C26 cells allografted in BALB/c mouse at 10 mg/kg, iv followed by light irradiation measured after 3 to 7 days. It is filed as functional, organism-based. Also on record: dose 10 mg/kg.
Series [28] can be described thus: Biodistribution in serum of BALB/c mouse allografted with mouse C26 cells at 10 mg/kg, iv after 6 hrs. It is filed as ADME, organism-based. Further details: dose 10 mg/kg, route intravenous. The settings on record: read-out: Drug uptake.
A short description of series [29]: Biodistribution in tumor of BALB/c mouse allografted with mouse C26 cells at 10 mg/kg, iv after 3 hrs. Type of series: ADME, organism-based, Neoplasm. Further details: dose 10 mg/kg, route intravenous. The conditions noted are these: read-out: Drug uptake.
The subject of series [30] is Liver. The series is described as follows: Biodistribution in liver of BALB/c mouse allografted with mouse C26 cells at 10 mg/kg, iv after 3 hrs. It is filed as ADME, organism-based. Also on record: dose 10 mg/kg, route intravenous. The settings on record: in vivo.

Molecules are shown by their SMILES. Calls of active or inactive are those of the source. No cut-off for these calls is given here.

Consider `C=Cc1c(C)c2cc3nc(cc4[nH]c(cc5nc(cc1[nH]2)C(C)(O)/C5=C\C=N/OCC)c(C)c4CCC(=O)[O-])C(CCC(=O)[O-])=C3C.[Na+].[Na+]` (stereo unspecified), for which the solubility (as a rule, how much of the substance goes into solution per volume) in [1] stood at 10000 µg/mL. Moreover, in series [2], the concentration at 3 h was found to be 5900 ng/g. Also, the concentration at 1 h in series [3] was found to be 24200 ng/g. For the same molecule, the Drug uptake result in [4], in series [5] and in series [6] was “Active” throughout.

`C=Cc1c(C)c2cc3nc(cc4[nH]c(cc5nc(cc1[nH]2)C(C)(O)/C5=C\C=N/OCC)c(C)c4CCC(=O)N(CC(=O)[O-])CC(=O)[O-])C(CCC(=O)N(CC(=O)[O-])CC(=O)[O-])=C3C.[Na+].[Na+].[Na+].[Na+]` (stereo unspecified): the solubility in series [1] amounted to 100000 µg/mL. Also, the Drug uptake result in series [7], in series [8], in [9], in [10], in [11] and in [12] was “Not Active” each time. For the same molecule, the Drug uptake entry is given as “Not Active” in [13]; “Not Active” in series [14]; “Active” in series [15]; “Active” in series [16]; “Active” in series [17]; “Active” in [18]. In addition, the Drug uptake result in series [19], in series [20], in series [6] and in [30] was “Active” throughout. Moreover, the Activity result in [21] and in series [22] was “Non-toxic” in each case. The result in [23], in [24], in series [25] and in series [26] was Active. The TGI entry in series [27] was “Active”. In series [28], the concentration at 6 h is 3400 ng/g. Besides, the concentration at 3 h in series [2] is 8400 ng/g; in [29], 690 ng/g. Moreover, in [3], the concentration at 1 h was found to be 17200 ng/g.

Take `C=Cc1c(C)c2cc3nc(cc4[nH]c(cc5nc(cc1[nH]2)C(C)(O)/C5=C\CO)c(C)c4CCC(=O)[O-])C(CCC(=O)[O-])=C3C.[Na+].[Na+]` (stereo unspecified): in series [1], the solubility came to 10000 µg/mL. Further, the Drug uptake result in series [6] was “Not Active”.
